Here are results for eight compounds from US10757937B2, “Sulfonamides that activate ABA receptors” (The Regents of the University of California, priority 2014, dated 2020).

Each structure is given as a SMILES string.

As usually defined, the IC50 is the concentration at which inhibition is half-maximal.

The first assay concerns the target T1, PYL4 (Arabidopsis thaliana, UniProt O80920).
T1 construct: 6X-His; made in house; host or cells: E. coli BL21[DE3]pLysS
T1 sequence (O80920 1-207): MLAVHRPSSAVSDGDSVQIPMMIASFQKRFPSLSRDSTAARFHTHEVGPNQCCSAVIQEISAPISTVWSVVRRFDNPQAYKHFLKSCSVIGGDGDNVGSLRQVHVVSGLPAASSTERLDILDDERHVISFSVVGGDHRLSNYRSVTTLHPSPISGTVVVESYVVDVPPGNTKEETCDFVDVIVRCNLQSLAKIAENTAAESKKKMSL
T1 sequence (Q9CAJ0 23-511 partner): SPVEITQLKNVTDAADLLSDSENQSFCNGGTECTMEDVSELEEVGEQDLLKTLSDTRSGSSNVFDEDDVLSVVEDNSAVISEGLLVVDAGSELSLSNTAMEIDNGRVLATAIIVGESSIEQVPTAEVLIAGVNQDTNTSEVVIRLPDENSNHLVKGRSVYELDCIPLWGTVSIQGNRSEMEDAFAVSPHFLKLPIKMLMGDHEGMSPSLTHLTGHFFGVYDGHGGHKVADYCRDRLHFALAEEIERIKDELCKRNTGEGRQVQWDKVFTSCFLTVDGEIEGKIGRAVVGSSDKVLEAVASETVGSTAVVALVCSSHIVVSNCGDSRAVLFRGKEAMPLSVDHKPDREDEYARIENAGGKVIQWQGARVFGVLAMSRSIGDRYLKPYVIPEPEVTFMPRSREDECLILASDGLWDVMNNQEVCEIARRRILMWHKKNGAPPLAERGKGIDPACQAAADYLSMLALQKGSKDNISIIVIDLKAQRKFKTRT
Kind of assay: receptor-mediated PP2C (HAB1) inhibition in vitro assay. The conditions noted are these: 50 uM of the test compound. The class given is biochemical. Summed up:
(§1)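 Compounds, tested at 25 μM or 50 uM with ABA at 10 uM, were incubated with recombinant receptor and 50 nM GST-HAB1 (2:1 ratio) in MnCl2-containing Tris-OAc buffer, pH 7.9. Phosphatase activity was followed by 4-methylumbelliferyl-phosphate fluorescence.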
As for `N#Cc1ccc(CS(=O)(=O)NC(=O)C(c2ccccc2)c2ccccc2)cc1` [Compound 71, N-[(4-Cyanophenyl)methanesulfonyl]-2,2-diphenylacetamide], the remaining activity at 50 µM came out at 93.2%.
On to `O=C(NS(=O)(=O)Cc1ccc(F)cc1)C1(c2ccccc2)CCCCC1` [Compound 64], for which the remaining activity at 50 µM was found to be 105%.
Same read-out and setting: the figure for `N#Cc1ccc(CS(=O)(=O)NC(=O)C(c2ccc(F)cc2)c2ccc(F)cc2)cc1` [Compound 72, N-[(4-Cyanophenyl)methanesulfonyl]-2,2-bis(4-fluorophenyl)acetamide] is 90.1%; for `N#Cc1ccc(CS(=O)(=O)NC(=O)C(C2CCCCC2)C2CCCCC2)cc1` [Compound 73, N-[(4-Cyanophenyl)methanesulfonyl]-2,2-cyclohexylacetamide] it is 98.2%.
Regarding `O=C(NS(=O)(=O)Cc1ccc([N+](=O)[O-])cc1)C1(c2ccccc2)CCCCC1` [Compound 63], the remaining activity at 50 µM came out at 103%.

The assay is the same for the next values; noted with them: ABA (10 μM).
Turning to `CC1=CC(=O)CC(C)(C)[C@@]1(O)/C=C/C(C)=C\C(=O)O` [ABA, Abscisic acid, reference compound], the “PP2C Activity PYL4” value was 10.2.

Staying with this assay, now noted: Table VII; read-out: PP2C Dose Curves PYL4 (IC50).
As for `CCC(CC)(C(=O)NS(=O)(=O)Cc1ccc([N+](=O)[O-])cc1)c1ccccc1` [Compound 19], the IC50 was above 50 µM.
For `CC(C)(C(=O)NS(=O)(=O)Cc1ccc(C#N)cc1)c1cccc(C#N)c1` [Compound 18], the half-maximal inhibitory concentration (IC50) is above 50 µM.

The same assay, now with this note: Table XII-B; calculated from dose curves; read-out: PP2C Activity (IC50 in uM) PYL4.
For `N#Cc1ccc(CS(=O)(=O)NC(=O)C(c2ccccc2)c2ccccc2)cc1` [Compound 71, N-[(4-Cyanophenyl)methanesulfonyl]-2,2-diphenylacetamide], the IC50 was above 50 µM.
The same measure, in the same setting: the figure for `O=C(NS(=O)(=O)Cc1ccc(F)cc1)C1(c2ccccc2)CCCCC1` [Compound 64] is above 50 µM; for `N#Cc1ccc(CS(=O)(=O)NC(=O)C(c2ccc(F)cc2)c2ccc(F)cc2)cc1` [Compound 72, N-[(4-Cyanophenyl)methanesulfonyl]-2,2-bis(4-fluorophenyl)acetamide] it is above 50 µM; for `N#Cc1ccc(CS(=O)(=O)NC(=O)C(C2CCCCC2)C2CCCCC2)cc1` [Compound 73, N-[(4-Cyanophenyl)methanesulfonyl]-2,2-cyclohexylacetamide] it is above 50 µM.
In the case of `O=C(NS(=O)(=O)Cc1ccc([N+](=O)[O-])cc1)C1(c2ccccc2)CCCCC1` [Compound 63], the IC50 is above 50 µM.

The assay is the same for the next values; noted with them: compound at 25 μM; control without agonist = 100%.
Take `CCC(CC)(C(=O)NS(=O)(=O)Cc1ccc([N+](=O)[O-])cc1)c1ccccc1` [Compound 19]: the remaining activity at 25 µM stood at 86%.
Still for that read-out and setting: the same measure for `CC(C)(C(=O)NS(=O)(=O)Cc1ccc(C#N)cc1)c1cccc(C#N)c1` [Compound 18]: 91%.

The target of a further assay is T2, PYL8 (Arabidopsis thaliana, UniProt Q9FGM1).
T2 construct: 6X-His; made in house; host or cells: E. coli BL21[DE3]pLysS
T2 sequence (Q9FGM1 1-188): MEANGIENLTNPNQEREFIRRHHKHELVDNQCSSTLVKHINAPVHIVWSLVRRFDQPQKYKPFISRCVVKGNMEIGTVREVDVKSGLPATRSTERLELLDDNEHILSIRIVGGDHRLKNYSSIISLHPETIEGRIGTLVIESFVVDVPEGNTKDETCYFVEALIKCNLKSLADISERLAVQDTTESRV
T2 sequence (Q9CAJ0 23-511 partner): T1 sequence (Q9CAJ0 23-511 partner)
The assay is described as above. To be noted: 50 uM of the test compound. The class given is biochemical. In short, it runs like this:
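Fluorogenic readout: 4-methylumbelliferyl-phosphate hydrolysis by 50 nM GST-HAB1 plus 2:1 His-receptor; Tris-OAc pH 7.9, NaCl, 1 mM MnCl2, β-ME. Compounds at 25 μM or 50 uM single dose; IC50 from dose curves for selected compounds.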
Take `N#Cc1ccc(CS(=O)(=O)NC(=O)C(c2ccccc2)c2ccccc2)cc1` [Compound 71, N-[(4-Cyanophenyl)methanesulfonyl]-2,2-diphenylacetamide]: the remaining activity at 50 µM turned out to be 96.8%.
Turning to `O=C(NS(=O)(=O)Cc1ccc(F)cc1)C1(c2ccccc2)CCCCC1` [Compound 64], the remaining activity at 50 µM was 101%.
Take `N#Cc1ccc(CS(=O)(=O)NC(=O)C(c2ccc(F)cc2)c2ccc(F)cc2)cc1` [Compound 72, N-[(4-Cyanophenyl)methanesulfonyl]-2,2-bis(4-fluorophenyl)acetamide]: the remaining activity at 50 µM was found to be 98.5%.
On to `N#Cc1ccc(CS(=O)(=O)NC(=O)C(C2CCCCC2)C2CCCCC2)cc1` [Compound 73, N-[(4-Cyanophenyl)methanesulfonyl]-2,2-cyclohexylacetamide], for which the remaining activity at 50 µM is 66.1%.
Still for that read-out and setting: the figure for `O=C(NS(=O)(=O)Cc1ccc([N+](=O)[O-])cc1)C1(c2ccccc2)CCCCC1` [Compound 63] is 96.6%.

The assay is the same for the next values; noted with them: ABA (10 μM).
As for `CC1=CC(=O)CC(C)(C)[C@@]1(O)/C=C/C(C)=C\C(=O)O` [ABA, Abscisic acid, reference compound], the “PP2C Activity PYL8” value worked out at 7.0.

The same assay, now with this note: Table VII; read-out: PP2C Dose Curves PYL8 (IC50).
With `CCC(CC)(C(=O)NS(=O)(=O)Cc1ccc([N+](=O)[O-])cc1)c1ccccc1` [Compound 19], the IC50 was determined as 9.65 µM.
As for `CC(C)(C(=O)NS(=O)(=O)Cc1ccc(C#N)cc1)c1cccc(C#N)c1` [Compound 18], the IC50 was 18.6 µM.

Still in this assay, the particulars now being: Table XII-B; calculated from dose curves; read-out: PP2C Activity (IC50 in uM) PYL8.
Regarding `N#Cc1ccc(CS(=O)(=O)NC(=O)C(c2ccccc2)c2ccccc2)cc1` [Compound 71, N-[(4-Cyanophenyl)methanesulfonyl]-2,2-diphenylacetamide], the IC50 was above 50 µM.
The same measure, in the same setting: the same measure for `O=C(NS(=O)(=O)Cc1ccc(F)cc1)C1(c2ccccc2)CCCCC1` [Compound 64]: above 50 µM.
Same read-out and setting: the figure for `N#Cc1ccc(CS(=O)(=O)NC(=O)C(c2ccc(F)cc2)c2ccc(F)cc2)cc1` [Compound 72, N-[(4-Cyanophenyl)methanesulfonyl]-2,2-bis(4-fluorophenyl)acetamide] is above 50 µM.
Consider `N#Cc1ccc(CS(=O)(=O)NC(=O)C(C2CCCCC2)C2CCCCC2)cc1` [Compound 73, N-[(4-Cyanophenyl)methanesulfonyl]-2,2-cyclohexylacetamide], for which the IC50 is above 50 µM.
Still for that read-out and setting: the same measure for `O=C(NS(=O)(=O)Cc1ccc([N+](=O)[O-])cc1)C1(c2ccccc2)CCCCC1` [Compound 63]: above 50 µM.

Still in this assay, the particulars now being: compound at 25 μM; control without agonist = 100%.
For the compound `CCC(CC)(C(=O)NS(=O)(=O)Cc1ccc([N+](=O)[O-])cc1)c1ccccc1` [Compound 19], the remaining activity at 25 µM came out at 36%.
The same measure, in the same setting: the same measure for `CC(C)(C(=O)NS(=O)(=O)Cc1ccc(C#N)cc1)c1cccc(C#N)c1` [Compound 18]: 52%.

The target of the next assay is T3, PYL6 (Arabidopsis thaliana, UniProt Q8S8E3).
T3 construct: 6X-His; made in house; host or cells: E. coli BL21[DE3]pLysS
T3 sequence (Q8S8E3 1-215): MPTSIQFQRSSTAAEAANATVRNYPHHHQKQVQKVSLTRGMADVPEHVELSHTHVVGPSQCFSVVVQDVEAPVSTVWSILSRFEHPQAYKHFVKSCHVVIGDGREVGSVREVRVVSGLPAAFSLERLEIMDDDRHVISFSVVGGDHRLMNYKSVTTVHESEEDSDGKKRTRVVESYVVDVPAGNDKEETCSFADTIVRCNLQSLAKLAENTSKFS
T3 sequence (Q9CAJ0 23-511 partner): T1 sequence (Q9CAJ0 23-511 partner)
The description is as above. The class given is biochemical. To be noted: 50 uM of the test compound. In short, it runs like this: as §1
Regarding `N#Cc1ccc(CS(=O)(=O)NC(=O)C(c2ccccc2)c2ccccc2)cc1` [Compound 71, N-[(4-Cyanophenyl)methanesulfonyl]-2,2-diphenylacetamide], the remaining activity at 50 µM stood at 96.9%.
Same read-out and setting: the figure for `O=C(NS(=O)(=O)Cc1ccc(F)cc1)C1(c2ccccc2)CCCCC1` [Compound 64] is 109%; for `N#Cc1ccc(CS(=O)(=O)NC(=O)C(c2ccc(F)cc2)c2ccc(F)cc2)cc1` [Compound 72, N-[(4-Cyanophenyl)methanesulfonyl]-2,2-bis(4-fluorophenyl)acetamide] it is 95.1%; for `N#Cc1ccc(CS(=O)(=O)NC(=O)C(C2CCCCC2)C2CCCCC2)cc1` [Compound 73, N-[(4-Cyanophenyl)methanesulfonyl]-2,2-cyclohexylacetamide] it is 91%.
Same read-out and setting: the figure for `O=C(NS(=O)(=O)Cc1ccc([N+](=O)[O-])cc1)C1(c2ccccc2)CCCCC1` [Compound 63] is 108%.

The same assay, now with this note: ABA (10 μM).
Turning to `CC1=CC(=O)CC(C)(C)[C@@]1(O)/C=C/C(C)=C\C(=O)O` [ABA, Abscisic acid, reference compound], the “PP2C Activity PYL6” value was determined as 10.9.

The assay is the same for the next values; noted with them: Table VII; read-out: PP2C Dose Curves PYL6 (IC50).
Regarding `CCC(CC)(C(=O)NS(=O)(=O)Cc1ccc([N+](=O)[O-])cc1)c1ccccc1` [Compound 19], the IC50 came out at 57.1 µM.
The same measure, in the same setting: the figure for `CC(C)(C(=O)NS(=O)(=O)Cc1ccc(C#N)cc1)c1cccc(C#N)c1` [Compound 18] is 12.6 µM.

Still in this assay, the particulars now being: Table XII-B; calculated from dose curves; read-out: PP2C Activity (IC50 in uM) PYL6.
As for `N#Cc1ccc(CS(=O)(=O)NC(=O)C(c2ccccc2)c2ccccc2)cc1` [Compound 71, N-[(4-Cyanophenyl)methanesulfonyl]-2,2-diphenylacetamide], the half-inhibitory concentration (IC50) is above 50 µM.
The same measure, in the same setting: the same measure for `O=C(NS(=O)(=O)Cc1ccc(F)cc1)C1(c2ccccc2)CCCCC1` [Compound 64]: above 50 µM.
For `N#Cc1ccc(CS(=O)(=O)NC(=O)C(c2ccc(F)cc2)c2ccc(F)cc2)cc1` [Compound 72, N-[(4-Cyanophenyl)methanesulfonyl]-2,2-bis(4-fluorophenyl)acetamide], the IC50 was above 50 µM.
On the same count and under the same terms, the figure for `N#Cc1ccc(CS(=O)(=O)NC(=O)C(C2CCCCC2)C2CCCCC2)cc1` [Compound 73, N-[(4-Cyanophenyl)methanesulfonyl]-2,2-cyclohexylacetamide] is above 50 µM; for `O=C(NS(=O)(=O)Cc1ccc([N+](=O)[O-])cc1)C1(c2ccccc2)CCCCC1` [Compound 63] it is above 50 µM.

In the next assay the test system is Arabidopsis seed germination and hypocotyl growth. Kind of assay: Arabidopsis seed germination and hypocotyl growth. It is filed as in vivo. To be noted: Arabidopsis thaliana; Table VIII; tested at 10 or 50 μM, ABA at 1 μM; lowest inhibiting concentration; − = none; read-out: Germination Inhibition. Summed up:
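Wild-type seeds germinated on ½× Murashige and Skoog medium with compound at 10 and 50 uM, or in a later series at 1, 5, 10, 25 and 50 uM. Reported value is the lowest tested concentration that inhibited germination or hypocotyl growth in wells where seeds germinated.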
On to `CCC(CC)(C(=O)NS(=O)(=O)Cc1ccc([N+](=O)[O-])cc1)c1ccccc1` [Compound 19], for which the minimal effective concentration worked out at 10 µM.

The assay is the same for the next values; noted with them: Germination Inhibition II; tested at 10 and 50 uM; lowest of the two concentrations that inhibited; − = none.
For the compound `CCC(CC)(C(=O)NS(=O)(=O)Cc1ccc([N+](=O)[O-])cc1)c1ccccc1` [Compound 19], the “Germination Inhibition” value turned out to be 10 µM.
